In US20250263404A1, “AMINOPYRIDINES AS ACTIVATORS OF PI3 KINASE” (UCL Business Ltd, priority 2021, published 2025):

Target: PI3Kα (Homo sapiens, UniProt P42336)
Assay: ADP-Glo in vitro lipid kinase assay, PI3Kα
Type: biochemical
Set-up: Full-length p110α was expressed in a complex with full-length p85α (for biochemistry and HDX-MS); 6xHis followed by TEV protease site (N); made in house; host or cells: Spodoptera frugiperda Sf9 (baculovirus co-infection; plasmids OP831 and OP809)
Method: The effect of 1938 on the in vitro lipid kinase activity of p85α in complex with p110α, p110β or p110δ (further referred to as PI3Kα, PI3Kβ and PI3Kδ) was tested. As a positive control, a bis-phosphorylated phosphopeptide (a PDGF-receptor-derived peptide phosphorylated on Tyr-740 and Tyr-751, hereafter referred to as pY peptide) was used to mimic engagement of the p85α SH2 domains with tyrosine-phosphorylated peptides in membrane-bound receptors and adaptor proteins, known to activate the PI3Kα complex.
Kinase reactions were performed with ADP-Glo kinase assay kit (Promega Corporation). The enzyme, substrate and compounds were diluted in reaction buffer (20 mM HEPES, 50 mM NaCl, 50 mM KCl, 3 mM MgCl2, 1 mM EGTA, 1 mM TCEP, pH 7.4). Final concentrations of PI3Kα and PI3Kδ used were 25 nM and 50 nM for PI3Kβ. Liposomes (5% brain PI(4,5)P2, 20% brain phosphatidylserine, 45% brain phosphatidylethanolamine, 15% brain phosphatidylcholine, 10% cholesterol, 5% sphingomyelin (Avanti Polar Lipids)) were used at a final concentration of 1 mg/ml.
For compound profiling, the reaction mixture contained 2 μl PI3K enzyme, 2 μl compound and/or pY and 2 μl of liposome substrate mixed with ATP. ATP was used at a final concentration of 500 μM for PI3Kα and PI3Kβ and at 200 μM for PI3Kδ, unless otherwise stated. The final DMSO concentration in the assay was 1%. The experiments were performed at room temperature for 3 h using 384 white-polystyrene plates (Corning #3824) before addition of 6 μl of ADP-Glo R1 to terminate the reaction. The plate was incubated for 45 min, followed by addition of 12 μl of ADP-Glo R2 and incubated further for 60 min in the dark. Luminescence was read using a Sense (Hidex) plate reader. […] All analyses were performed using GraphPad Prism 7.
For characterisation of the effects of 1938 on in vitro PI3K enzymology, all reactions were performed at room temperature with 384 white-polystyrene plates (Corning #3574). The final DMSO concentration in the assay was between 0.5%-1.8%. The reaction mixture contained 2 μl PI3K enzyme, 2 μl compound and/or pY and 2 μl of liposome substrate mixed with ATP. ATP was used at a final concentration of 200 μM, unless otherwise stated. The enzyme and compounds were pre-incubated for 10 min prior to addition of substrate. The reaction was allowed to proceed for 45 min at room temperature, before addition of 6 μl of ADP-Glo R1 to terminate the reaction. The plate was incubated for 60 min, followed by addition of 12 μl of ADP-Glo R2 and incubated further for 60 min in the dark. For enzyme kinetic calculations, data was expressed as velocity (pmol of ADP generated/sec). ADP-ATP standard curves were performed according to the manufacturer's instructions, and all analyses were performed using GraphPad Prism 8.

Sequence of PI3Kα (P42336 whole entry): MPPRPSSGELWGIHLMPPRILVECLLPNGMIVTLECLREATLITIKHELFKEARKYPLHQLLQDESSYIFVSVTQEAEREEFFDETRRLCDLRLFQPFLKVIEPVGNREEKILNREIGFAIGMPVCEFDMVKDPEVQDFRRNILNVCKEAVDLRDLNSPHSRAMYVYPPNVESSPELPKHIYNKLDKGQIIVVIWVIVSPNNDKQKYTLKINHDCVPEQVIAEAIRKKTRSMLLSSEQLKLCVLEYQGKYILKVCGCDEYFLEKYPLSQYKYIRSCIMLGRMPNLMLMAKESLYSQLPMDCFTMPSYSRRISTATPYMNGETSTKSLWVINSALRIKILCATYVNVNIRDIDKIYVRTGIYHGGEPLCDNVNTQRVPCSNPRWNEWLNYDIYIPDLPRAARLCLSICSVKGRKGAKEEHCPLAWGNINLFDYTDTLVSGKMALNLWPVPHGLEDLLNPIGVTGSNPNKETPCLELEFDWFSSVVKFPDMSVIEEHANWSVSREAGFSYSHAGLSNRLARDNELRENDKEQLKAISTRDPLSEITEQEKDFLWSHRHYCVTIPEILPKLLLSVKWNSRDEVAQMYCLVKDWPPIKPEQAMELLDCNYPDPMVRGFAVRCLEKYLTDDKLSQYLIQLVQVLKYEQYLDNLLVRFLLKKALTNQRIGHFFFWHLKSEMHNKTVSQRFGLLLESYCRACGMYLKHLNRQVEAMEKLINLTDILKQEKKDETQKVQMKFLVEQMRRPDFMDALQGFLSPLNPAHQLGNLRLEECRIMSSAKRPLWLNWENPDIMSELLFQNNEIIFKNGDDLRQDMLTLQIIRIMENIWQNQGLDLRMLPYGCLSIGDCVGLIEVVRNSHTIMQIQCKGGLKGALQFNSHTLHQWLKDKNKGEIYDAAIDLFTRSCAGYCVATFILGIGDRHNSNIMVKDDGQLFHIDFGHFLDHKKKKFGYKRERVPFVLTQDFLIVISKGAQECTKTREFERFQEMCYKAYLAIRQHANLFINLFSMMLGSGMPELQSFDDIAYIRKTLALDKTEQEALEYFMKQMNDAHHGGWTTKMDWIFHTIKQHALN
Sequence of PI3Kα (P27986 whole entry partner): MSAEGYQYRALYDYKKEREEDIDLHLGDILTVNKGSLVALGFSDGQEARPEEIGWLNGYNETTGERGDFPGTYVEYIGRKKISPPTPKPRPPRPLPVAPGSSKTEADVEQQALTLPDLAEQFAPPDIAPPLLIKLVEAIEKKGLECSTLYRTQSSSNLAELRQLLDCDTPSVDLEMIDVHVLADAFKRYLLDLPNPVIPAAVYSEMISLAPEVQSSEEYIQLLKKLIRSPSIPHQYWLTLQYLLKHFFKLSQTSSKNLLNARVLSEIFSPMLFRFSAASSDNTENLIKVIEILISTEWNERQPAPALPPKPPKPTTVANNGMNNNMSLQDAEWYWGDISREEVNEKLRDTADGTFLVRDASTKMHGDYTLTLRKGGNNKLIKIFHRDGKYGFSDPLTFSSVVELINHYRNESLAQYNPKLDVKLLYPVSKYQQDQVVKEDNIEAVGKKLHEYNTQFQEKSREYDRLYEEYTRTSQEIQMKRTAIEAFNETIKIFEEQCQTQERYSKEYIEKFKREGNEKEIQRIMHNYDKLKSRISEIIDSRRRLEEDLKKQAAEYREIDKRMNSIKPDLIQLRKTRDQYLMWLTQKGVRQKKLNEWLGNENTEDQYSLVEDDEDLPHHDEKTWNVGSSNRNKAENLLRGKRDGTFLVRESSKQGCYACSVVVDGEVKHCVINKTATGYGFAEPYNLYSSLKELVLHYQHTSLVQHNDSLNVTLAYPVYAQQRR

## CCN1CCN(c2ccc(Nc3cc(Nc4cccc5c4N(C(C)=O)CC5)ccn3)cc2)CC1 [Example 1938]
1938 plus pY
  PI3Kα activation in combination with a saturating concentration of pY: synergistic PI3Kα activation
ATP titration
  maximum rate of reaction (Vmax) of PI3Kα: increased
  turnover number (Kcat) of PI3Kα: increased
concentration-dependent
  effect on in vitro lipid kinase activity of PI3Kα: activate PI3Kα
In vitro PI3Kα activation
  EC50: 58 ± 28 µM
Relative to 1938
  Max. activity relative to 1938: 100%
Relative to pY control
  Max. activity relative to pY ctrl: 397 ± 60%
